For 19 compounds, IC50 results are on record in patent US20260199483A1 (Bright Angel Therapeutics Inc., priority 2022, published 2026).

The IC50 is the concentration at which inhibition is half-maximal.

For the assay, the target named is T1, purified recombinant Yck2 (Candida albicans, UniProt A0A1D8PKB4).
T1 construct: Yck2 residues 37-345 were PCR amplified from C. albicans genomic DNA; His6 (N); TEV protease site (N); made in house; host or cells: E. coli BL21(DE3)-Gold
Put plainly: HotSpot kinase assay. The assay is classed as biochemical, C. albicans. As to the method: IC50s were determined using the in vitro HotSpot kinase assay (purified enzymes, ^33P-ATP, an appropriate substrate and 1 μM ATP). For enzyme inhibition assays, compounds were tested in range of ten concentrations from 10 uM to 0.0005 uM using purified recombinant Yck2. Reaction conditions were 1 uM ATP, one hour incubation with inhibitor, and kinase activity detected using 33-ATP phosphorylation of an appropriately selected peptide substrate.
Yck2 residues 37-345 were PCR amplified from C. albicans genomic DNA and subcloned into the vector pMCSG53, which codes for a N-terminal His6 tag, TEV protease site, followed by the Yck2 protein. E. coli BL21(DE3)-Gold competent cells were transformed with this plasmid and the Yck2 protein was purified using methodology previously described (Stogios et al., ACS Chem. Biol. 13, 1322-1332 (2018)).

T1 sequence (A0A1D8PKB4 entry or part of it): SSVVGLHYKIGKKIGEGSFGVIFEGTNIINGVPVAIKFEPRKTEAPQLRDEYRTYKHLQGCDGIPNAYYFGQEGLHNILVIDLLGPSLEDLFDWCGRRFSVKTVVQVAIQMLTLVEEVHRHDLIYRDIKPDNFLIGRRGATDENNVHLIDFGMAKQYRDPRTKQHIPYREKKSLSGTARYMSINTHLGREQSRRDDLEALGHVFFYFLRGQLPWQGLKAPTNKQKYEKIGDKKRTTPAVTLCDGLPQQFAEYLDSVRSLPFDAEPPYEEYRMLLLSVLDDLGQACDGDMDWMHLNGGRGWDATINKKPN

For the compound `Nc1nccc(-c2c(-c3ccc(F)cc3)ncn2C2CCN(CC[C@](O)(Cn3cncn3)c3ccc(F)cc3F)CC2)n1` [Compound I-53, (R)-4-(4-(5-(2-aminopyrimidin-4-yl)-4-(4-fluorophenyl)-1H-imidazol-1-yl)piperidin-1-yl)-2-(2,4-difluorophenyl)-1-(1H-1,2,4-triazol-1-yl)butan-2-ol], the half-maximal inhibitory concentration (IC50) was found to be 9.52 nM. Take `Cn1cc(-c2ccnc3c2C(=O)N(CC(O)(Cn2cncn2)c2ccc(F)cc2F)C3)c(-c2ccc(F)cc2)n1` (stereo not shown) [Compound I-6, 6-(2-(2,4-difluorophenyl)-2-hydroxy-3-(1H-1,2,4-triazol-1-yl)propyl)-4-(3-(4-fluorophenyl)-1-methyl-1H-pyrazol-4-yl)-6,7-dihydro-5H-pyrrolo[3,4-b]pyridin-5-one]: the IC50 stood at 72.7 nM.

On to `Cn1cc(-c2ccncc2COCC[C@](O)(Cn2cncn2)c2ccc(F)cc2F)c(-c2ccc(F)cc2)n1` [Compound I-235, (R)-2-(2,4-difluorophenyl)-4-((4-(3-(4-fluorophenyl)-1-methyl-1H-pyrazol-4-yl)pyridin-3-yl)methoxy)-1-(1H-1,2,4-triazol-1-yl)butan-2-ol], for which the IC50 came out at 107 nM. As to `OC(CNCc1ccc2c(-c3ccncc3)c(-c3ccc(F)cc3)nn2c1)(Cn1cncn1)c1ccc(F)cc1F` (stereo not shown) [Compound I-152, 2-(2,4-difluorophenyl)-1-(((2-(4-fluorophenyl)-3-(pyridin-4-yl)pyrazolo[1,5-a]pyridin-6-yl)methyl)amino)-3-(1H-1,2,4-triazol-1-yl)propan-2-ol], the concentration for half-maximal inhibition (IC50) was found to be 3.37 nM. To `Nc1nccc(-c2c(-c3ccc(F)cc3)ncn2C2CCN(CC(O)(Cn3ccnn3)c3ccc(F)cc3F)CC2)n1` (stereo not shown) [Compound I-35, 1-(4-(5-(2-aminopyrimidin-4-yl)-4-(4-fluorophenyl)-1H-imidazol-1-yl)piperidin-1-yl)-2-(2,4-difluorophenyl)-3-(1H-1,2,3-triazol-1-yl)propan-2-ol] belongs 6.8 nM; to `Nc1nccc(-c2c(-c3ccc(F)cc3)ncn2C2CCN(C(=O)CCNCC(O)(Cn3cncn3)c3ccc(F)cc3F)CC2)n1` (stereo not shown) [Compound I-77, 1-(4-(5-(2-aminopyrimidin-4-yl)-4-(4-fluorophenyl)-1H-imidazol-1-yl)piperidin-1-yl)-3-((2-(2,4-difluorophenyl)-2-hydroxy-3-(1H-1,2,4-triazol-1-yl)propyl)amino)propan-1-one], 0.4 nM. In the case of `Cn1cc(-c2ccncc2COCCC(O)(Cn2cncn2)c2ccc(F)cc2F)c(-c2ccc(F)cc2)n1` (stereo not shown) [Compound I-233, 2-(2,4-difluorophenyl)-4-((4-(3-(4-fluorophenyl)-1-methyl-1H-pyrazol-4-yl)pyridin-3-yl)methoxy)-1-(1H-1,2,4-triazol-1-yl)butan-2-ol], the IC50 is 65.9 nM. In the case of `O[C@](CNCc1ccc2c(-c3ccncc3)c(-c3ccc(F)cc3)nn2c1)(Cn1cncn1)c1ccc(F)cc1F` [Compound I-252, (R)-2-(2,4-difluorophenyl)-1-(((2-(4-fluorophenyl)-3-(pyridin-4-yl)pyrazolo[1,5-a]pyridin-6-yl)methyl)amino)-3-(1H-1,2,4-triazol-1-yl)propan-2-ol], the IC50 turned out to be 2.07 nM.

Take `Cn1cc(-c2ccncc2CNCC(O)(Cn2cncn2)c2ccc(F)cc2F)c(-c2ccc(F)cc2)n1` (stereo not shown) [Compound I-5, 2-(2,4-difluorophenyl)-1-(((4-(3-(4-fluorophenyl)-1-methyl-1H-pyrazol-4-yl)pyridin-3-yl)methyl)amino)-3-(1H-1,2,4-triazol-1-yl)propan-2-ol]: the 50% inhibitory concentration (IC50) came to 335 nM. In the case of `CN1Cc2nccc(-c3cn(CCC(O)(Cn4cncn4)c4ccc(F)cc4F)nc3-c3ccc(F)cc3)c2C1=O` (stereo not shown) [Compound I-2, 4-(1-(3-(2,4-difluorophenyl)-3-hydroxy-4-(1H-1,2,4-triazol-1-yl)butyl)-3-(4-fluorophenyl)-1H-pyrazol-4-yl)-6-methyl-6,7-dihydro-5H-pyrrolo[3,4-b]pyridin-5-one], the IC50 stood at 107 nM. For the compound `Cn1cc(-c2ccncc2CNC2CCN(CC(O)(Cn3cncn3)c3ccc(F)cc3F)CC2)c(-c2ccc(F)cc2)n1` (stereo not shown) [Compound I-4, 2-(2,4-difluorophenyl)-1-(4-(((4-(3-(4-fluorophenyl)-1-methyl-1H-pyrazol-4-yl)pyridin-3-yl)methyl)amino)piperidin-1-yl)-3-(1H-1,2,4-triazol-1-yl)propan-2-ol], the IC50 is 178 nM. `Nc1nccc(-c2c(-c3ccc(F)cc3)ncn2C2CCN(CCC(=O)NC3CCN(CC(O)(Cn4cncn4)c4ccc(F)cc4F)CC3)CC2)n1` (stereo not shown) [Compound I-234, 3-(4-(5-(2-aminopyrimidin-4-yl)-4-(4-fluorophenyl)-1H-imidazol-1-yl)piperidin-1-yl)-N-(1-(2-(2,4-difluorophenyl)-2-hydroxy-3-(1H-1,2,4-triazol-1-yl)propyl)piperidin-4-yl)propanamide]: the IC50 stood at 8.12 nM. To `Nc1nccc(-c2c(-c3ccc(F)cc3)ncn2C2CCN(CC[C@@](O)(Cn3cncn3)c3ccc(F)cc3F)CC2)n1` [Compound I-55, (S)-4-(4-(5-(2-aminopyrimidin-4-yl)-4-(4-fluorophenyl)-1H-imidazol-1-yl)piperidin-1-yl)-2-(2,4-difluorophenyl)-1-(1H-1,2,4-triazol-1-yl)butan-2-ol] belongs 8.41 nM; to `OC(CN1CCC(NCc2ccc3c(-c4ccncc4)c(-c4ccc(F)cc4)nn3c2)CC1)(Cn1cncn1)c1ccc(F)cc1F` (stereo not shown) [Compound I-254, 2-(2,4-difluorophenyl)-1-(4-(((2-(4-fluorophenyl)-3-(pyridin-4-yl)pyrazolo[1,5-a]pyridin-6-yl)methyl)amino)piperidin-1-yl)-3-(1H-1,2,4-triazol-1-yl)propan-2-ol], 3.09 nM; to `Nc1nccc(-c2c(-c3ccc(F)cc3)ncn2C2CCN(C[C@](O)(Cn3cncn3)c3ccc(F)cc3F)CC2)n1` (single isomer, unassigned) [Compound I-33], 12.3 nM. Take `Cn1cc(-c2ccnc3c2C(=O)N(CCC2CCN(C[C@](O)(Cn4cncn4)c4ccc(F)cc4F)CC2)C3)c(-c2ccc(F)cc2)n1` (single isomer, unassigned) [Compound I-248]: the IC50 came to 4.69 nM. For `Cn1cc(-c2ccncc2CNCCC(O)(Cn2cncn2)c2ccc(F)cc2F)c(-c2ccc(F)cc2)n1` (stereo not shown) [Compound I-3, 2-(2,4-difluorophenyl)-4-(((4-(3-(4-fluorophenyl)-1-methyl-1H-pyrazol-4-yl)pyridin-3-yl)methyl)amino)-1-(1H-1,2,4-triazol-1-yl)butan-2-ol], the concentration for half-maximal inhibition (IC50) turned out to be 179 nM. For `O=C(NCC(O)(Cn1cncn1)c1ccc(F)cc1F)c1cccc2c(-c3ccncc3)c(-c3ccc(F)cc3)nn12` (stereo not shown) [Compound I-151, N-(2-(2,4-difluorophenyl)-2-hydroxy-3-(1H-1,2,4-triazol-1-yl)propyl)-2-(4-fluorophenyl)-3-(pyridin-4-yl)pyrazolo[1,5-a]pyridine-7-carboxamide] the value was 765 nM; for `Cn1cc(-c2ccnc3c2C(=O)N(CC(O)(Cn2ccnc2)c2ccc(F)cc2F)C3)c(-c2ccc(F)cc2)n1` (stereo not shown) [Compound I-1, 6-(2-(2,4-difluorophenyl)-2-hydroxy-3-(1H-imidazol-1-yl)propyl)-4-(3-(4-fluorophenyl)-1-methyl-1H-pyrazol-4-yl)-6,7-dihydro-5H-pyrrolo[3,4-b]pyridin-5-one], 46.3 nM.
